Here are results for seven molecules from patent US20190111137A1, “METHODS FOR ANTAGONISTS OF A NON-SELECTIVE CATION CHANNEL IN NEURAL CELLS” (University of Maryland, Baltimore, priority 2007, published 2019).

As usually defined, the IC50 is the concentration that inhibits the measured activity by half. Usually EC50 stands for the concentration at which the effect is half-maximal.

“And” between values parts separate entries of the source, which are not always exact repeats. Identical values can stand only once. “Also recorded” adds a separate entry of the source.

Data set [1] has as its target receptor-mediated Ca^2+ entry. The note with it: cited from earlier work.
The subject of data set [2] is endothelial cells of the BBB. Conditions: cited from earlier work.
In the next data set the target is T1, human TRP3 (Homo sapiens, UniProt Q13507).
T1 construct: expressed in transfected cells
T1 sequence (Q13507 1-848 isoform Q13507-3): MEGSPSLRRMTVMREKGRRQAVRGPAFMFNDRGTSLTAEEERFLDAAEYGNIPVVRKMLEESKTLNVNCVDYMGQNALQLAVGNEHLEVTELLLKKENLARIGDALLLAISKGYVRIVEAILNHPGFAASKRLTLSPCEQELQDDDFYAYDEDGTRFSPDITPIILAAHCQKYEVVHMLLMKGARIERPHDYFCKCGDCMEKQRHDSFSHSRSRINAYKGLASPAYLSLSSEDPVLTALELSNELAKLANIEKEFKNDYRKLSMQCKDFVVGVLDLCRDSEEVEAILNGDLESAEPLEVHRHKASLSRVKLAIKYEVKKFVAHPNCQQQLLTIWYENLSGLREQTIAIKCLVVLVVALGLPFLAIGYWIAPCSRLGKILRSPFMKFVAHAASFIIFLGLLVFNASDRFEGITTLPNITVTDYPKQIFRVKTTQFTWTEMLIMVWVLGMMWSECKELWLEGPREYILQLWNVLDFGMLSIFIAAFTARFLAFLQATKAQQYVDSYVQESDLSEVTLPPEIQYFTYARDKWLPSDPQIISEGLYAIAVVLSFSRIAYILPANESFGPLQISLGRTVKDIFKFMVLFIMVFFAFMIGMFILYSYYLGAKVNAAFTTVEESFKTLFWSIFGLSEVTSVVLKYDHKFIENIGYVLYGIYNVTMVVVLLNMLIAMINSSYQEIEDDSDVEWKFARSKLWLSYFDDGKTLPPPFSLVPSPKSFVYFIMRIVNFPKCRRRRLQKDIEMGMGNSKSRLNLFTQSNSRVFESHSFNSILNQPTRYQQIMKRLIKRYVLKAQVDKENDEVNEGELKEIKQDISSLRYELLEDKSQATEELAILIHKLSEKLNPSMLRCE
The note with it: high concentrations; cited from earlier work.

The subject of the next data set is TRPM4. Put plainly: TRPM4 protein in bEnd.3 cells after 6-h exposure to TNFα (Western blot). Type of data set: cell-based, murine. Conditions: 20 ng/ml. As to the method: TNFα causes up-regulation NCCa-ATP (putative TRPM4) channel in bEnd.3. In certain aspects of the invention, injury leads to NFκB activation, such as SCI, and can result in up-regulation of functional TRPM4 channels. Murine CNS microvascular endothelial cells (bEnd.3, ATTC, Rockville, Md.) were studied under control conditions and after 6-h exposure to the pro-inflammatory cytokine, TNFα (20 ng/ml), which activates NFκB. Cultures were immunolabeled for TRPM4 and TRPM5, the only 2 molecularly identified non-selective cation channels with exclusive monovalent conductivity. […] Immunolabeling for TRPM5 was negative. Western blots confirmed robust up-regulation of TRPM4 (3-fold increase, FIGS. 19C,19D).

For data set [3], the system named is isolated retina of chick embryo. Conditions: cited from earlier work.
For data set [4], the system named is rodent model of transient focal ischemia. The note with it: pre- or post-ischemic administration; cited from earlier work.
In a further data set the target is T2, TRPM2 (Homo sapiens, UniProt O94759).
T2 construct: host or cells: Chinese hamster ovary cells
T2 sequence (O94759 whole entry): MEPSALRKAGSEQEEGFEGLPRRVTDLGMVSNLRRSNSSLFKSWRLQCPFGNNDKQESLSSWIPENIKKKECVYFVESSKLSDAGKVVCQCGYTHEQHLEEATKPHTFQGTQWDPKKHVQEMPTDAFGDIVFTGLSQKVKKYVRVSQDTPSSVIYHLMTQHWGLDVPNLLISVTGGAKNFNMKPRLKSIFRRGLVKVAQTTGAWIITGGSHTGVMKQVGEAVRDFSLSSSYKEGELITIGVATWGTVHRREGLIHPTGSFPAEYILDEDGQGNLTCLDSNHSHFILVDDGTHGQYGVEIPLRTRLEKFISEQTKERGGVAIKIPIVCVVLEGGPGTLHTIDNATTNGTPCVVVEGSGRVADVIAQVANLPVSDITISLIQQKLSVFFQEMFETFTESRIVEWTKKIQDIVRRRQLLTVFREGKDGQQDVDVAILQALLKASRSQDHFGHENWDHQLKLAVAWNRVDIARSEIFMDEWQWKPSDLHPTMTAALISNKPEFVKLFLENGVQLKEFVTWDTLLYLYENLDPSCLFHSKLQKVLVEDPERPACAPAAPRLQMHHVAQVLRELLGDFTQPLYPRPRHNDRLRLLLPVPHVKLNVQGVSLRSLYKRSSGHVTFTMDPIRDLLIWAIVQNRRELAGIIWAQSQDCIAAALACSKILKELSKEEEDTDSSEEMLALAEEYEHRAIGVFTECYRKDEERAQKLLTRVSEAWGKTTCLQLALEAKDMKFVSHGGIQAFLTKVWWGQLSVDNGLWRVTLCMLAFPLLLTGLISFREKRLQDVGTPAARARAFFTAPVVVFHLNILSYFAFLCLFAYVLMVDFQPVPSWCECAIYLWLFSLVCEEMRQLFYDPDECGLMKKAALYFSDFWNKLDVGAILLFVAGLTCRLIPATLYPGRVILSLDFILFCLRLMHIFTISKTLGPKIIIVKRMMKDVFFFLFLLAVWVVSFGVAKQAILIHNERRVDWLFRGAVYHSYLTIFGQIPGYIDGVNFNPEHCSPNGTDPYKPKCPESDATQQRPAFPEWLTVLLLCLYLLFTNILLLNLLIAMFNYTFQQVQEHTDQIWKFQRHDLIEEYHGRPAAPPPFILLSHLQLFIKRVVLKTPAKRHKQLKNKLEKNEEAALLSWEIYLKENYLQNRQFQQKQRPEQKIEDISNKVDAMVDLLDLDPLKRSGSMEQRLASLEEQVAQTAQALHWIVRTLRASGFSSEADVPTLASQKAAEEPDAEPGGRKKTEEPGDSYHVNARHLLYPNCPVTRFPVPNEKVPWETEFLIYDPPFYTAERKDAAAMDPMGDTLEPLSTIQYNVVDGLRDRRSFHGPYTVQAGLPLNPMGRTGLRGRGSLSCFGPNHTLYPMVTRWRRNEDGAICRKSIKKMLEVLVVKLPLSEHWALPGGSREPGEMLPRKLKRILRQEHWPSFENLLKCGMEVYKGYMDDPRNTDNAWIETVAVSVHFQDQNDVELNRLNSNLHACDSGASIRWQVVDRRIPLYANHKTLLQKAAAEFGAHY
The note with it: activated by extracellular H2O2; cited from earlier work.

Data set [5] relates to rat model of contusion SCI. As to the kind of experiment: Rat model of unilateral cervical spinal cord injury (SCI). The format is in vivo. Conditions: for neurobehavioral function (inclined plane, rearing) / progressive hemorrhagic necrosis / progressive hemorrhage: post-SCI.
Data set [6] concerns the target T3, NCCa-ATP channel (Mus musculus, UniProt B2RUS7+Q7TN37).
T3 construct: exposure to TNFα causes expression of a new channel that is not present before exposure to TNFα; host or cells: bEnd.3 cells exposed to TNFα
Put plainly: Patch clamp of bEnd.3 cells exposed to TNFα, ATP depleted with Na azide plus 2-DG. Conditions: TNFα-treated bEnd.3 cells. Type of data set: cell-based, murine. How it is done: (§1) (iii) Pharmacological block of SUR1 and TRPM4/patch clamp.
(§2) Patch clamp was performed using a nystatin-perforated patch technique to maintain the metabolic integrity of the cells.
(§3) Single channel recordings were performed using inside-out patches, with Cs^+ as the only permeant cation.
(§4) Apart from direct application of PIP2 (FIG. 24A), PIP2 levels can be augmented by inhibiting spontaneously active PLC.
(§5) PATCH CLAMP. […] In general, recordings are carried out using a Cs^+ rich solution, to preclude recording activity from any K^+ channel including KATP channel.
Background: The patch-clamp technique gives a direct electrical read-out from membranes.

In data set [7] the test system is NCCa-ATP channel. The description is as above. The format is cell-based, murine. As to the method: as §1, §2, §3, §4, §5
The subject of data set [8] is global cerebral ischemia in gerbils. Conditions: in vivo; cited from earlier work.
The subject of data set [9] is rat model of ischemic stroke. The note with it: given 30 min after initiation of permanent MCAO; cited from earlier work.
The next data set has as its system reactive astrocytes. Conditions: cells exposed to Na azide to deplete ATP; cited from earlier work.
The subject of a further data set is TRPM4 channel. The note with it: read-out: glibenclamide block (EC50); cited from earlier work.
In data set [10] the test system is rat model of contusion SCI. Conditions: as reported (Simard et al., 2007); cited from earlier work.
The conditions of data set [11]: constant infusion 75-200 ng/h; cited from earlier work.
Data set [12] concerns rodent models of ischemic stroke. Conditions: cited from earlier work.

T3 sequence (Q7TN37 whole entry): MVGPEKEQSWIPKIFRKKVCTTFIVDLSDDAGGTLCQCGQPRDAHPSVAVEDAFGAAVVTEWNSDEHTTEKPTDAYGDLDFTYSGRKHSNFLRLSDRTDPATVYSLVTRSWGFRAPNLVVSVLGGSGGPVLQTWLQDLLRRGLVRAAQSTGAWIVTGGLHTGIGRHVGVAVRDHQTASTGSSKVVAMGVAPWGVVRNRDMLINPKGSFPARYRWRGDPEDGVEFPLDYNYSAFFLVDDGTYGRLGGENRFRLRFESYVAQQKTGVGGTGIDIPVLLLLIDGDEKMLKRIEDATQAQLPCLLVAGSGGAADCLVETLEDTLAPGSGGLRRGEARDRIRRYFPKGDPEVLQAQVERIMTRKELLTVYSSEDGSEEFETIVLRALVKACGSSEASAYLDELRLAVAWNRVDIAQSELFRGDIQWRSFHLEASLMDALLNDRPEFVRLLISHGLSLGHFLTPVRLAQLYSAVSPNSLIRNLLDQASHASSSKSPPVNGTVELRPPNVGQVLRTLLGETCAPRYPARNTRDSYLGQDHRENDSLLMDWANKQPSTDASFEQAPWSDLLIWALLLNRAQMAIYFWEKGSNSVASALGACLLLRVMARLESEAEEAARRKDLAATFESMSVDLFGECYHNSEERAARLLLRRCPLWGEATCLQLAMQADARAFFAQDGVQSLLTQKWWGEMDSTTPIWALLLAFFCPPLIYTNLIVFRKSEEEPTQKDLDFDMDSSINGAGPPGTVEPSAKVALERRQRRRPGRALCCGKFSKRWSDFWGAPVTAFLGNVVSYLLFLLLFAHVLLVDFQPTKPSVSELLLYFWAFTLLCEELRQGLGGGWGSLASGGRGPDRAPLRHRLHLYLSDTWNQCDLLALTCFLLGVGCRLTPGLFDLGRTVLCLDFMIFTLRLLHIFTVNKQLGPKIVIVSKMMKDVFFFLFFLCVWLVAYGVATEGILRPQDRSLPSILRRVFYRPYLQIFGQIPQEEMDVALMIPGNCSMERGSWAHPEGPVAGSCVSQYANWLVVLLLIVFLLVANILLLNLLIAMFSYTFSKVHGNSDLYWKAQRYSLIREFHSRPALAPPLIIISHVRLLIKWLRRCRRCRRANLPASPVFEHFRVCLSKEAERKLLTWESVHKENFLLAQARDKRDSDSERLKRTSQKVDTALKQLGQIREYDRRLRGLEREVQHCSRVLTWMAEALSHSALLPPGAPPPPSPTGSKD
T3 sequence (B2RUS7 1-1588): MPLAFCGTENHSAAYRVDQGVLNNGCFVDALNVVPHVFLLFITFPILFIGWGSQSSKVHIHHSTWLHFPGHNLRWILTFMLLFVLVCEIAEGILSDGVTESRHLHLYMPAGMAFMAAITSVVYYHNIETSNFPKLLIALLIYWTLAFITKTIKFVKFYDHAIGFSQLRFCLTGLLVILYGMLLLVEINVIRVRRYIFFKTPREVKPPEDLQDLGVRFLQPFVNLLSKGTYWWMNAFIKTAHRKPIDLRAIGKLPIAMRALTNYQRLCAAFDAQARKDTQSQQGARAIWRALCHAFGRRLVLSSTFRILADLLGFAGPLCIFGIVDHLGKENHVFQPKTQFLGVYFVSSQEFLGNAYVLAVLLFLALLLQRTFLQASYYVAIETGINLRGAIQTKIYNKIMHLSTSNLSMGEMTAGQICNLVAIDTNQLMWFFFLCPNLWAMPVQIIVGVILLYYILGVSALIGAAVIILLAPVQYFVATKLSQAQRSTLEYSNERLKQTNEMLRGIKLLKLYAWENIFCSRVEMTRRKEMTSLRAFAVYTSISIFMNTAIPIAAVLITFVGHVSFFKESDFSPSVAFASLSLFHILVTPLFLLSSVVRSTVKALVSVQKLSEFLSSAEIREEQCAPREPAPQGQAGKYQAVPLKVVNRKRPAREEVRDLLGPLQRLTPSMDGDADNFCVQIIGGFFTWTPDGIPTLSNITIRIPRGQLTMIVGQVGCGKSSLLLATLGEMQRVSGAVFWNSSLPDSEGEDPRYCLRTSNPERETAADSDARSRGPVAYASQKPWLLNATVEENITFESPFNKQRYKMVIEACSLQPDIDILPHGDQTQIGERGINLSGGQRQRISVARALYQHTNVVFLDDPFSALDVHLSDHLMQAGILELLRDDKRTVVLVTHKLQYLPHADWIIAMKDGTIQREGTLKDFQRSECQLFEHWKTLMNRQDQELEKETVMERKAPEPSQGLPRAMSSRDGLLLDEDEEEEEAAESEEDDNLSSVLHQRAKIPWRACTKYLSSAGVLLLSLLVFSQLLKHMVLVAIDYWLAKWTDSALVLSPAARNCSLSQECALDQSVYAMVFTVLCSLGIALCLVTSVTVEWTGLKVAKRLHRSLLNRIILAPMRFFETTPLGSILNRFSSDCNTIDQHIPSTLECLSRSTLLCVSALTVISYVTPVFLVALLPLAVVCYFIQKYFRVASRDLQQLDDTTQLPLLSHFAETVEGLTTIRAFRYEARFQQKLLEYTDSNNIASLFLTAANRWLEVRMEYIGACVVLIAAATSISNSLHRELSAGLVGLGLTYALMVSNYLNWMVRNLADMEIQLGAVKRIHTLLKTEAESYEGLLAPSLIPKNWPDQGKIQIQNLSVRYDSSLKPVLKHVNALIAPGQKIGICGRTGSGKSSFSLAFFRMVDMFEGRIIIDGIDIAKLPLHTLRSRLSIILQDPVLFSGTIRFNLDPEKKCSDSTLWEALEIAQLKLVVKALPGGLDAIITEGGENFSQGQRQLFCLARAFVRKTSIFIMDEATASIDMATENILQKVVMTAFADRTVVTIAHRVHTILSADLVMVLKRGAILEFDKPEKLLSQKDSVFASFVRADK

As for `COc1ccc(CCCOC(Cn2ccnc2)c2ccc(OC)cc2)cc1.Cl` (stereo not drawn) [SKF 96365, 1-(beta[3-(4-methoxy-phenyl)propoxy]-4-methoxyphenethyl)-1H-imidazole hydrochloride], the IC50 in [1] is approximately 10 µM. Besides, the “expression of the tight junction protein occludin” value in data set [2] (after hypoxic/aglycemic stress) was “increased”. In addition, the “hypoxia-induced BBB disruption” value in data set [2] (normoglycemia) is “protective”. In addition, the “increased Ca^2+ entry in TRP3-expressing cells” value at human TRP3 was “blocked”.
For the molecule TNFα, the “up-regulation of TRPM4 (Western blots)” value with TRPM4 was 3 fold.
On to `Cc1cccc(Nc2ccccc2C(=O)O)c1C` [mefenamic acid], for which the “protection of the retina against ischemic or excitotoxic insult” value in data set [3] was “protected”. The “neuroprotection (necrosis in cortex and subcortical structures)” value in data set [4] is on record as “no neuroprotection”.
For `O=C(O)c1ccccc1Nc1cccc(C(F)(F)F)c1` [flufenamic acid], the “inhibition of TRPM2” value on TRPM2 is given as “inhibits”. The “amount of blood in cord homogenates” value in [5] (24-hr post-SCI, post-treatment) was “significant decrease in blood”. For the same molecule, the “hemorrhage in cords (surface and sections)” value in data set [5] (24 h post-SCI) was “less hemorrhage”. For the same molecule, the “neurobehavioral function (inclined plane, rearing)” value in [5] is reported as “improves neurological function; also recorded: improved”; in [5] (listed as FFA), “improve neurobehavioral function; also recorded: significantly better performance than controls”. The “progressive hemorrhagic necrosis / progressive hemorrhage” value was “reduces progressive hemorrhagic necrosis; also recorded: blocked” in [5] and “prevented” in [5] (listed as FFA). Besides, the “capillary integrity (vimentin immunolabeling)” value in data set [5] (region of injury post-SCI, listed as FFA) is “elongated capillaries; also recorded: elongated and more intact”. For the same molecule, the “block of current activated by ATP depletion (whole cell)” value at NCCa-ATP channel [6] was “blocked; also recorded: also blocks this current”; at NCCa-ATP channel [6] (100 μM flufenamic acid) it was “blocked”; on NCCa-ATP channel [6] (listed as FFA), “blocked”. Besides, the “block of single channel activity (inside-out patch)” value at NCCa-ATP channel [6] (Cs+ as the only permeant cation) is listed as “blocked”. The “protection of the retina against ischemic or excitotoxic insult” value in [3] is on record as “protected”.
As to `COc1ccc2c(c1)CC[C@@H]1[C@@H]2CC[C@]2(C)[C@@H](NCCCCCCN3C(=O)C=CC3=O)CC[C@@H]12` [U73122], the results for the “channel activation by inhibiting phospholipase C (whole cell)” value with NCCa-ATP channel [7] (TNFα-stimulated bEnd.3 cells) and in the data set with NCCa-ATP channel [7] (control bEnd.3 cells) were “activated an ohmic current; also recorded: channel activation” and “without effect”, respectively.
Consider `Cc1c(C(=O)NN2CCCCC2)nn(-c2ccc(Cl)cc2Cl)c1-c1ccc(Cl)cc1` [rimonabant], for which, in [8], the “electroencephalographic changes, hyperlocomotion and memory impairment induced by global ischemia” value is reported as “antagonize”; the “survival of pyramidal cells in the CA1 subfield of the hippocampus” value is on record as “progressive survival”. The “reduction of infarct volume” value in [9] is reported as approximately 40%.
Consider `COc1ccc(Cl)cc1C(=O)NCCc1ccc(S(=O)(=O)NC(=O)NC2CCCCC2)cc1` [glibenclamide], for which, in the data set with reactive astrocytes, the “blebbing associated with cytotoxic edema” value is on record as “significantly reduces blebbing”, the membrane depolarization entry is recorded as “blocks membrane depolarization” and the necrotic cell death result was “significantly reduces necrotic cell death”. The “TRPM4 expression in cord (immunolabeling)” value in data set [5] (24 h post-SCI) was “significantly reduced”. Besides, in the data set on TRPM4 channel, the EC50 is 10 to 100 µM. In addition, in data set [10], the neurological function entry is listed as “significantly improves neurological outcome; also recorded: improves neurological function”, the progressive hemorrhagic necrosis result is recorded as “significantly reduces progressive hemorrhagic necrosis” and the tissue loss result is given as “significantly reduces”. The predicted serum concentration in [11] is 1-3 ng/ml and 2-6 nM. In data set [12] (massive ischemic stroke with malignant cerebral edema), the reduction of mortality result is reported as “half”. The “reduction of cerebral edema (excess water)” value in [12] (massive ischemic stroke with malignant cerebral edema, low-dose, post-ischemic) was “half”. Further, in data set [12] (stroke induced by thromboemboli with delayed spontaneous reperfusion), the “reduction of lesion volume” value is on record as “half”.
